Data as given in PubChem BioAssay AID2060485 (Molecular Pharmacology Branch, DTP, NCI, 2025).

Tested on: A375 multi-cell spheroids with HUVEC/MSC, viability
Assay: Anticancer human tumor A375 cell line growth inhibition [GQUAD];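 further: spheroids exposed to compounds for seven days before readout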
Conditions: for IC50: curve of first compound; for viability, T/C: stronger effect = lower value
Outline: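 Multi-cell-type spheroids of tumor cells with HUVEC and mesenchymal stem cells, treated with drug combinations. Concentrations descend in half-log steps from near clinical Cmax, or from 10 microM where Cmax is unknown; viability read-out.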

[1] = second compound 0.0316 µM, first compound 0.0316 µM
[2] = second compound 0.0316 µM, first compound 0.1 µM
[3] = second compound 0.0316 µM, first compound 0.316 µM
[4] = second compound 0.0316 µM, first compound 1 µM
[5] = second compound 0.0316 µM, first compound 3.16 µM
[6] = second compound 0.0316 µM, first compound 10 µM
[7] = second compound 0.1 µM, first compound 0.0316 µM
[8] = second compound 0.1 µM, first compound 0.1 µM
[9] = second compound 0.1 µM, first compound 0.316 µM
[10] = second compound 0.1 µM, first compound 1 µM
[11] = second compound 0.1 µM, first compound 3.16 µM
[12] = second compound 0.1 µM, first compound 10 µM
[13] = second compound 0.316 µM, first compound 0.0316 µM
[14] = second compound 0.316 µM, first compound 0.1 µM
[15] = second compound 0.316 µM, first compound 0.316 µM
[16] = second compound 0.316 µM, first compound 1 µM
[17] = second compound 0.316 µM, first compound 3.16 µM
[18] = second compound 0.316 µM, first compound 10 µM
[19] = second compound 1 µM, first compound 0.0316 µM
[20] = second compound 1 µM, first compound 0.1 µM
[21] = second compound 1 µM, first compound 0.316 µM
[22] = second compound 1 µM, first compound 1 µM
[23] = second compound 1 µM, first compound 3.16 µM
[24] = second compound 1 µM, first compound 10 µM
[25] = second compound 3.16 µM, first compound 0.0316 µM
[26] = second compound 3.16 µM, first compound 0.1 µM
[27] = second compound 3.16 µM, first compound 0.316 µM
[28] = second compound 3.16 µM, first compound 1 µM
[29] = second compound 3.16 µM, first compound 3.16 µM
[30] = second compound 3.16 µM, first compound 10 µM
[31] = second compound 10 µM, first compound 0.0316 µM
[32] = second compound 10 µM, first compound 0.1 µM
[33] = second compound 10 µM, first compound 0.316 µM
[34] = second compound 10 µM, first compound 1 µM
[35] = second compound 10 µM, first compound 3.16 µM
[36] = second compound 10 µM, first compound 10 µM

Structure (SMILES): CC1COCCN1c1cc(-c2ccnn2C)c2ccnc(-c3ccn[nH]3)c2n1 (stereo not drawn) + Cc1[nH]c2ccc(F)cc2c1-c1nc2c3cccnc3c3ncccc3c2[nH]1
- IC50 (second compound 0.0316 µM): 628 nM
- IC50 (second compound 0.1 µM): 613 nM
- IC50 (second compound 0.316 µM): 454 nM
- IC50 (second compound 1 µM): 384 nM
- IC50 (second compound 3.16 µM): 35.1 nM
- IC50 (second compound 10 µM): 52.7 nM
- viability, T/C [1]: 111%
- viability, T/C [2]: 108%
- viability, T/C [3]: 75.3%
- viability, T/C [4]: 33.3%
- viability, T/C [5]: 13.1%
- viability, T/C [6]: 12.3%
- viability, T/C [7]: 116%
- viability, T/C [8]: 113%
- viability, T/C [9]: 66.4%
- viability, T/C [10]: 39%
- viability, T/C [11]: 12.2%
- viability, T/C [12]: 10.8%
- viability, T/C [13]: 114%
- viability, T/C [14]: 128%
- viability, T/C [15]: 62.6%
- viability, T/C [16]: 34%
- viability, T/C [17]: 13.5%
- viability, T/C [18]: 12.7%
- viability, T/C [19]: 97.7%
- viability, T/C [20]: 87.3%
- viability, T/C [21]: 52.1%
- viability, T/C [22]: 30%
- viability, T/C [23]: 15.6%
- viability, T/C [24]: 14%
- viability, T/C [25]: 52.7%
- viability, T/C [26]: 29.4%
- viability, T/C [27]: 23%
- viability, T/C [28]: 18.2%
- viability, T/C [29]: 11.8%
- viability, T/C [30]: 9.5%
- viability, T/C [31]: 63.3%
- viability, T/C [32]: 30.2%
- viability, T/C [33]: 27.9%
- viability, T/C [34]: 21.4%
- viability, T/C [35]: 18%
- viability, T/C [36]: 11.7%

Structure (SMILES): CC1COCCN1c1cc(C2(O)CC3CCC(C2)O3)c2cnn(-c3ccn[nH]3)c2n1 (stereo not drawn) + Cc1[nH]c2ccc(F)cc2c1-c1nc2c3cccnc3c3ncccc3c2[nH]1
- IC50 (second compound 0.0316 µM): 339 nM
- IC50 (second compound 0.1 µM): 352 nM
- IC50 (second compound 0.316 µM): 282 nM
- IC50 (second compound 1 µM): 210 nM
- IC50 (second compound 3.16 µM): < 31.6 nM
- IC50 (second compound 10 µM): < 31.6 nM
- viability, T/C [1]: 114%
- viability, T/C [2]: 103%
- viability, T/C [3]: 51.9%
- viability, T/C [4]: 16.9%
- viability, T/C [5]: 12.2%
- viability, T/C [6]: 8.69%
- viability, T/C [7]: 113%
- viability, T/C [8]: 94.9%
- viability, T/C [9]: 54%
- viability, T/C [10]: 18%
- viability, T/C [11]: 13.2%
- viability, T/C [12]: 7.58%
- viability, T/C [13]: 122%
- viability, T/C [14]: 85%
- viability, T/C [15]: 47.8%
- viability, T/C [16]: 19.7%
- viability, T/C [17]: 13.3%
- viability, T/C [18]: 9.21%
- viability, T/C [19]: 79.1%
- viability, T/C [20]: 67.4%
- viability, T/C [21]: 40.7%
- viability, T/C [22]: 16.6%
- viability, T/C [23]: 13.3%
- viability, T/C [24]: 8.26%
- viability, T/C [25]: 31.5%
- viability, T/C [26]: 17.9%
- viability, T/C [27]: 13.5%
- viability, T/C [28]: 11.2%
- viability, T/C [29]: 6.29%
- viability, T/C [30]: 1.15%
- viability, T/C [31]: 39%
- viability, T/C [32]: 18.9%
- viability, T/C [33]: 18.6%
- viability, T/C [34]: 9.83%
- viability, T/C [35]: 11.4%
- viability, T/C [36]: 3.18%

Structure (SMILES): CC1COCCN1c1cc(C2(S(C)(=N)=O)CC2)nc(-c2ccnc3[nH]ccc23)n1 (stereo not drawn) + Cc1[nH]c2ccc(F)cc2c1-c1nc2c3cccnc3c3ncccc3c2[nH]1
- IC50 (second compound 0.0316 µM): 7110 nM
- IC50 (second compound 0.1 µM): 8020 nM
- IC50 (second compound 0.316 µM): 9010 nM
- IC50 (second compound 1 µM): 7960 nM
- IC50 (second compound 3.16 µM): 1300 nM
- IC50 (second compound 10 µM): 2110 nM
- viability, T/C [1]: 105%
- viability, T/C [2]: 107%
- viability, T/C [3]: 99.4%
- viability, T/C [4]: 92%
- viability, T/C [5]: 64.5%
- viability, T/C [6]: 43.9%
- viability, T/C [7]: 113%
- viability, T/C [8]: 106%
- viability, T/C [9]: 107%
- viability, T/C [10]: 98.2%
- viability, T/C [11]: 74.4%
- viability, T/C [12]: 44.2%
- viability, T/C [13]: 106%
- viability, T/C [14]: 105%
- viability, T/C [15]: 112%
- viability, T/C [16]: 109%
- viability, T/C [17]: 78.7%
- viability, T/C [18]: 47.2%
- viability, T/C [19]: 108%
- viability, T/C [20]: 109%
- viability, T/C [21]: 115%
- viability, T/C [22]: 112%
- viability, T/C [23]: 82%
- viability, T/C [24]: 42%
- viability, T/C [25]: 107%
- viability, T/C [26]: 88.7%
- viability, T/C [27]: 83.3%
- viability, T/C [28]: 57%
- viability, T/C [29]: 27.8%
- viability, T/C [30]: 12.9%
- viability, T/C [31]: 94.5%
- viability, T/C [32]: 107%
- viability, T/C [33]: 104%
- viability, T/C [34]: 74.9%
- viability, T/C [35]: 36.9%
- viability, T/C [36]: 15.4%

Structure (SMILES): COc1ccc([C@@H](O)c2cc(-c3ncnc4cc(N5CCOCC5)ccc34)c(F)cc2Cl)nn1 + Cc1[nH]c2ccc(F)cc2c1-c1nc2c3cccnc3c3ncccc3c2[nH]1
- IC50 (second compound 0.0316 µM): > 10000 nM
- IC50 (second compound 0.1 µM): > 10000 nM
- IC50 (second compound 0.316 µM): > 10000 nM
- IC50 (second compound 1 µM): > 10000 nM
- IC50 (second compound 3.16 µM): > 10000 nM
- IC50 (second compound 10 µM): > 10000 nM
- viability, T/C [1]: 105%
- viability, T/C [2]: 108%
- viability, T/C [3]: 103%
- viability, T/C [4]: 126%
- viability, T/C [5]: 100%
- viability, T/C [6]: 77.5%
- viability, T/C [7]: 106%
- viability, T/C [8]: 102%
- viability, T/C [9]: 105%
- viability, T/C [10]: 112%
- viability, T/C [11]: 96.6%
- viability, T/C [12]: 85.6%
- viability, T/C [13]: 103%
- viability, T/C [14]: 112%
- viability, T/C [15]: 105%
- viability, T/C [16]: 110%
- viability, T/C [17]: 95.3%
- viability, T/C [18]: 87.9%
- viability, T/C [19]: 106%
- viability, T/C [20]: 112%
- viability, T/C [21]: 109%
- viability, T/C [22]: 113%
- viability, T/C [23]: 98.2%
- viability, T/C [24]: 68.1%
- viability, T/C [25]: 101%
- viability, T/C [26]: 96%
- viability, T/C [27]: 101%
- viability, T/C [28]: 79.1%
- viability, T/C [29]: 77.2%
- viability, T/C [30]: 50.4%
- viability, T/C [31]: 113%
- viability, T/C [32]: 107%
- viability, T/C [33]: 122%
- viability, T/C [34]: 97.2%
- viability, T/C [35]: 78.2%
- viability, T/C [36]: 56.3%
